What all share (assay type): cell-based
Test [1] has as its system S. aureus. Nature of the test: Bactericidal activity.
Test [2] has as its system S. epidermidis. Nature of the test: Bactericidal activity.
Test [3] has as its system clinically relevant resistant strains. As to the kind of experiment: MIC in clinically relevant drug-resistant strains (all species together). As for the experimental part: (§1) Compounds of the present invention were tested for antibacterial activity against a variety of pathogenic organisms including S. aureus, S. pneumoniae, S. pyogenes, E. faecalis, H. influenza and M. catarrhalis using a standard broth microdilution method to determine their minimum inhibitory concentrations (MICs). All compounds were tested using standard methods in accordance with CLSI guidelines (Clinical and Laboratory Standards Institute). Compounds described in Examples 1-5, 7-12, 14, 16-17, 19-30, 32-35, 37-42, 44-66, 69, 71-76, 79-84, and 87 had MIC's of 0.25-4.0 μg/mL against some strains of the major Gram-positive organisms S. aureus, S. pneumoniae, S. pyogenes, and E. faecalis.
(§2) Compounds of the present invention were not compromised by existing resistance to all drug classes tested, including β-lactams, glycopeptides, oxazolidinones, macrolides, and fluoroquinolones. In particular, the compound described in Example 9 was active against methicillin- (oxacillin-) resistant S. aureus (MRSA), vancomycin-intermediate S. aureus (VISA), linezolid-resistant S. aureus, methicillin- (oxacillin-) resistant and mupirocin resistant S. epidermidis, macrolide-resistant S. pyogenes, macrolide-, penicillin-, and levofloxacin-resistant S. pneumoniae, vancomycin-, macrolide-, and ciprofloxacin-resistant E. faecalis (VRE) and vancomycin-, macrolide-, and ciprofloxacin-resistant E. faecium.

For test [4], the system named is S. pneumoniae. As to the kind of experiment: Bactericidal activity.
In test [5] the test system is E. faecalis. Nature of the test: Bactericidal activity.
Test [6] relates to S. pyogenes. Nature of the test: Bactericidal activity.
Test [7] relates to E. faecium. As to the kind of experiment: Bactericidal activity.
In test [8] the test system is methicillin- (oxacillin-) resistant and mupirocin resistant S. epidermidis. As to the kind of experiment: Antibacterial activity against drug-resistant strains. On the procedure: as §1, §2
In test [9] the test system is macrolide-, penicillin-, and levofloxacin-resistant S. pneumoniae. The description is as above. On the procedure:
as §1, §2

Test [10] deals with vancomycin-, macrolide-, and ciprofloxacin-resistant E. faecium. Described as above. As for the experimental part: as §1, §2
Test [11] has as its system macrolide-resistant S. pyogenes. Described as above. On the procedure:
as §1, §2

The test system of test [12] is vancomycin-, macrolide-, and ciprofloxacin-resistant E. faecalis (VRE). The description is as above. As for the experimental part:
as §1, §2

The test system of test [13] is resistant S. aureus (MRSA, VISA, linezolid-resistant). Described as above. On the procedure:
as §1, §2

≈ marks a conversion by molar mass, not a printed value.

This is an account of results in patent US8293919B2, “Antibacterial sulfone and sulfoxide substituted heterocyclic urea compounds” (Crestone, Inc., priority 2007, dated 2012).

As usually defined, the MIC is the lowest concentration that inhibits growth of the organism. A high value points to a need for much substance.

With `CCCS(=O)(=O)Cc1csc(NC(=O)NCc2ccc(Cl)c(Cl)c2)n1` [Example 9, 1-(3,4-dichlorobenzyl)-3-(4-(propylsulfonylmethyl)thiazol-2-yl)urea], the bactericidal effect result in test [1], in test [2], in test [4], in test [5], in test [6] and in [7] was “bactericidal” in each case. Moreover, the MIC in [3] (clinically relevant resistant strains) lay in the range of 0.5 to 4 µg/mL (≈ 1.18 to 9.47 µM). The “MICs in sensitive versus drug resistant strains” value in test [3] (sensitive versus drug resistant strains) is “comparable”. Also, the “activity against resistant strain” value in test [8], in [9], in test [10], in test [11], in test [12] and in test [13] (linezolid-resistant S. aureus) was “active” each time. Moreover, the “activity against resistant strain” value in test [13] (methicillin- (oxacillin-) resistant S. aureus (MRSA)) and in test [13] (vancomycin-intermediate S. aureus (VISA)) was “active” throughout.
